Measurements taken from paper PMC9308172 (Journal of medicinal chemistry, 2017).

Legend:
A/WSN/33-M2-N31S = assay type: cell-based, Influenza virus A/WSN/33 (H1N1); settings: read-out: IC50 A/WSN/33-M2-N31S
[1] = test system: A/California/07/2009 (H1N1) M2: N31; settings: cited from earlier work

Row | SMILES | IC50 (A/WSN/33-M2-N31S) [nM] | blockage of full-length S31N M2 protein in electrophysiology (EP) studies [1]
1 | NC12CC3CC(CC(C3)C1)C2 [Compound 1, Amantadine, reference compound] | 270 ± 160 | 
2 | NC1C2CC3CC(C2)CC1C3 (stereo not shown) [Compound 2] | 420 ± 460 | 
3 | CC1(N)C2CC3CC(C2)CC1C3 (stereo not shown) [Compound 3] | 330 ± 100 | 
4 | CCC1(N)C2CC3CC(C2)CC1C3 (stereo not shown) [Compound 4] | 340 ± 260 | 
5 | CCCC1(N)C2CC3CC(C2)CC1C3 (stereo not shown) [Compound 5] | 340 ± 100 | no blockage
6 | C1CNC2(C1)C1CC3CC(C1)CC2C3 (stereo not shown) [Compound 6] | 340 ± 80 | 
7 | CN1CCCC12C1CC3CC(C1)CC2C3 (stereo not shown) [Compound 7] | 900 ± 290 | 
8 | CC12CC3CC(CC(C3)C13CCCN3)C2 (stereo not shown) [Compound 8, 1′-Methylspiro[pyrrolidine-2,2′-adamantane]] | 6120 ± 2590 | 
9 | NC1(C23CC4CC(CC(C4)C2)C3)CCCC1 [Compound 9] | 4340 ± 2940 | 
